Read-outs that look alike come from different tables or passages of the source.
Key:
[1] = format: physicochemical; settings: for SALIVA STABILITY OF MELATONIN: human; for storage time over which concentrations in saliva were comparable / preserved: room temperature in the presence of P1 versus −20° C.
Method: The effectiveness of the preservative of the present invention in maintaining the stability of hormones in liquid biological samples was evaluated by measuring the maintenance of base-line physiological levels of melatonin and cortisol in saliva. Aliquots (non-spiked) of the pooled saliva samples containing base-line physiological levels of melatonin and cortisol were stored −20° C. or at room temperature and containing sodium benzoate and citric acid in an amount of 0.25% and 0.05% of the sample (weight/volume), respectively (“P1”). Duplicate samples were analyzed by radioimmunoassay on days 1, 14, 28, 60, 120, 180, 240 and 360 (see Tables 5 and 6 below).

[2] = Stability of spiked APAP and AP in saliva (HPLC); format: physicochemical
Description: Non-invasive estimates of physiological and pharmacokinetic alterations may be obtained by measuring the concentrations of certain compounds and their metabolites in liquid biological samples (e.g., saliva). For example, gastrointestinal activity and the absorption, bioavailability and elimination of acetaininophen (“APAP”) may be assessed by measuring APAP concentrations in liquid biological samples following oral administration of APAP. In addition, hepatic metabolism may be measured indirectly from the clearance of orally administered antipyrine (“AP”) from liquid biological samples. The accuracy of such non-invasive estimates depends, in part, upon the stability of the reference compound or metabolite in the liquid biological sample. Therefore, the effectiveness of a particular preservative may be evaluated by determining the degradation time course for a known quantity of a specific reference compound.
The effectiveness of the preservative of the present invention was evaluated by measuring the stability of APAP and AP in saliva samples stored at −20° C. as compared to saliva samples stored at room temperature and containing sodium benzoate and citric acid in an amount of 0.25% and 0.05% of the sample (weight/volume), respectively (“P1”). Saliva samples were collected from forty subjects, pooled, aliquoted and spiked with APAP (5 or 25 μg/ml) or AP (5 or 50 μg/ml). Duplicate samples were analyzed by high performance liquid chromatography on days 1, 14, 28, 60, 120, 180, 240 and 360 (see Tables 1-4 below).

COc1ccc2[nH]cc(CCNC(C)=O)c2c1 [Melatonin, melatonin]
SALIVA STABILITY OF MELATONIN ([1]; 28 day): 31.71 ± 4.4 pg/mL | SALIVA STABILITY OF MELATONIN ([1]; 28 days): 29.43 ± 5.9 pg/mL | storage time over which concentrations in saliva were comparable / preserved [1]: 180 days

CC(=O)Nc1ccc(O)cc1 [APAP, acetaminophen]
Saliva Stability (APAP concentration) ([2]; 5 μg/ml APAP, No Preservative, −20° C., Day 01): 5.83 ± 0.08 µg/mL | Saliva Stability (APAP concentration) ([2]; 5 μg/ml APAP, No Preservative, −20° C., Day 14): 6.59 ± 0.61 µg/mL | Saliva Stability (APAP concentration) ([2]; 5 μg/ml APAP, No Preservative, −20° C., Day 28): 5.81 ± 0.08 µg/mL | Saliva Stability (APAP concentration) ([2]; 5 μg/ml APAP, No Preservative, −20° C., Day 60): 5.82 ± 0.20 µg/mL | Saliva Stability (APAP concentration) ([2]; 5 μg/ml APAP, No Preservative, −20° C., Day 120): 5.54 ± 0.33 µg/mL | Saliva Stability (APAP concentration) ([2]; 5 μg/ml APAP, No Preservative, −20° C., Day 180): 3.77 ± 0.03 µg/mL | Saliva Stability (APAP concentration) ([2]; 5 μg/ml APAP, No Preservative, −20° C., Day 240): 4.17 ± 0.16 µg/mL | Saliva Stability (APAP concentration) ([2]; 5 μg/ml APAP, No Preservative, −20° C., Day 360): 5.14 ± 0.09 µg/mL | Saliva Stability (APAP concentration) ([2]; 5 μg/ml APAP, P1, RT, Day 01): 5.49 ± 0.09 µg/mL | Saliva Stability (APAP concentration) ([2]; 5 μg/ml APAP, P1, RT, Day 14): 5.38 ± 0.14 µg/mL | Saliva Stability (APAP concentration) ([2]; 5 μg/ml APAP, P1, RT, Day 28): 4.83 ± 1.79 µg/mL | Saliva Stability (APAP concentration) ([2]; 5 μg/ml APAP, P1, RT, Day 60): 6.89 ± 0.94 µg/mL | Saliva Stability (APAP concentration) ([2]; 5 μg/ml APAP, P1, RT, Day 120): 5.40 ± 0.20 µg/mL | Saliva Stability (APAP concentration) ([2]; 5 μg/ml APAP, P1, RT, Day 180): 4.37 ± 0.08 µg/mL | Saliva Stability (APAP concentration) ([2]; 5 μg/ml APAP, P1, RT, Day 240): 4.29 ± 0.25 µg/mL | Saliva Stability (APAP concentration) ([2]; 5 μg/ml APAP, P1, RT, Day 360): 5.31 ± 0.43 µg/mL | Saliva Stability (APAP concentration) ([2]; 25 μg/ml APAP, No Preservative, −20° C., Day 01): 24.88 ± 0.22 µg/mL | Saliva Stability (APAP concentration) ([2]; 25 μg/ml APAP, No Preservative, −20° C., Day 14): 25.60 ± 0.41 µg/mL | Saliva Stability (APAP concentration) ([2]; 25 μg/ml APAP, No Preservative, −20° C., Day 28): 25.25 ± 0.48 µg/mL | Saliva Stability (APAP concentration) ([2]; 25 μg/ml APAP, No Preservative, −20° C., Day 60): 25.02 ± 0.4 µg/mL | Saliva Stability (APAP concentration) ([2]; 25 μg/ml APAP, No Preservative, −20° C., Day 120): 25.45 ± 0.49 µg/mL | Saliva Stability (APAP concentration) ([2]; 25 μg/ml APAP, No Preservative, −20° C., Day 180): 16.71 ± 0.50 µg/mL | Saliva Stability (APAP concentration) ([2]; 25 μg/ml APAP, No Preservative, −20° C., Day 240): 18.20 ± 0.14 µg/mL | Saliva Stability (APAP concentration) ([2]; 25 μg/ml APAP, No Preservative, −20° C., Day 360): 24.37 ± 0.36 µg/mL | Saliva Stability (APAP concentration) ([2]; 25 μg/ml APAP, P1, RT, Day 01): 24.94 ± 0.56 µg/mL | Saliva Stability (APAP concentration) ([2]; 25 μg/ml APAP, P1, RT, Day 14): 24.63 ± 0.12 µg/mL | Saliva Stability (APAP concentration) ([2]; 25 μg/ml APAP, P1, RT, Day 28): 27.3 ± 1.54 µg/mL | Saliva Stability (APAP concentration) ([2]; 25 μg/ml APAP, P1, RT, Day 60): 29.88 ± 3.58 µg/mL | Saliva Stability (APAP concentration) ([2]; 25 μg/ml APAP, P1, RT, Day 120): 24.20 ± 0.47 µg/mL | Saliva Stability (APAP concentration) ([2]; 25 μg/ml APAP, P1, RT, Day 180): 17.55 ± 0.46 µg/mL | Saliva Stability (APAP concentration) ([2]; 25 μg/ml APAP, P1, RT, Day 240): 17.21 ± 0.36 µg/mL | Saliva Stability (APAP concentration) ([2]; 25 μg/ml APAP, P1, RT, Day 360): 25.70 ± 0.55 µg/mL

C[C@]12CCC(=O)C=C1CC[C@@H]1[C@@H]2[C@@H](O)C[C@@]2(C)[C@H]1CC[C@]2(O)C(=O)CO [Cortisol, cortisol]
storage time over which concentrations in saliva were comparable / preserved [1]: 180 days

Source: patent US6716392B1, “Preservation of liquid biological samples” (The United States of America as represented by the United …, priority 1995, dated 2004)
